Results as given in patent US6511815B1, “Method for quantitating competitive binding of molecules to proteins utilizing fluorescence polarization” (priority 1996, dated 2003).

Target: T1, Estrogen receptor (Homo sapiens, UniProt P03372)
T1 construct: purchased PanVera Corporation, Madison, Wis
Experiment: Competitive fluorescence polarization assay, displacement of fluormone ES1 from ER by environmental compounds
Format: binding
Conditions: 1 nM ES1, 10 nM ER, 2.5 hours at room temperature, 360/485 nm
Procedure: Many compounds found in the environment are know to act as natural estrogens. […] The two pesticides were tested individually and together. […] Estrogen receptor was added to each tube at a final concentration of 10 nM. The mixtures were allowed to equilibrate for 2.5 hours at room temperature and the polarization values were read 360/485 nm excitation/emission.

T1 sequence (P03372 whole entry): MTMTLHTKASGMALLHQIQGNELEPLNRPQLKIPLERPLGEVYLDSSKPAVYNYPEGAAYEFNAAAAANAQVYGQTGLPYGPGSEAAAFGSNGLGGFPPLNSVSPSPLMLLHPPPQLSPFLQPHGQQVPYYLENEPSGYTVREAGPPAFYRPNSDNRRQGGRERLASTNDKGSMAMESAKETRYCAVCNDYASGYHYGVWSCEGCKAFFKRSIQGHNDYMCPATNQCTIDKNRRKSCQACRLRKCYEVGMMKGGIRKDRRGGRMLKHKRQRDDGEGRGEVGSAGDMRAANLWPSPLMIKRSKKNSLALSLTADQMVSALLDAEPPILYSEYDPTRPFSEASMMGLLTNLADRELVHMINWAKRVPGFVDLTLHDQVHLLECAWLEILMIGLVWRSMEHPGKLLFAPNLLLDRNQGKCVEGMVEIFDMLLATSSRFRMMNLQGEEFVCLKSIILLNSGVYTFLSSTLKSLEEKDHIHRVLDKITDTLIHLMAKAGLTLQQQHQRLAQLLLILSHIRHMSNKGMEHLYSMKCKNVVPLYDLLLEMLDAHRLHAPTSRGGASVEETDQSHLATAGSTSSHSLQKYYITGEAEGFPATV

With `ClC1=C(Cl)C2(Cl)C3C(Cl)C(Cl)CC3C1(Cl)C2(Cl)Cl` (stereo not shown) [chlordane] the “ability to displace fluormone ES1 binding to ER” value was “effectively competed the fluormone ES1 off the estrogen receptor”.
